Source: the NIST ThermoML archive (doi:10.1021/je400140n)
Numbers after ± are expanded uncertainties.

Assay: molar heat capacity at constant pressure
Conditions: 101.33 kPa, Liquid, Small sample (50 mg) DSC

| SMILES | molar heat capacity at constant pressure (296.2 K) | molar heat capacity at constant pressure (300.2 K) | molar heat capacity at constant pressure (304.2 K) | molar heat capacity at constant pressure (308.2 K) | molar heat capacity at constant pressure (312.2 K) | molar heat capacity at constant pressure (316.2 K) | molar heat capacity at constant pressure (320.2 K) | molar heat capacity at constant pressure (324.2 K) | molar heat capacity at constant pressure (328.2 K) | molar heat capacity at constant pressure (332.2 K) | molar heat capacity at constant pressure (336.2 K) | molar heat capacity at constant pressure (340.2 K) | molar heat capacity at constant pressure (344.2 K) | molar heat capacity at constant pressure (348.2 K) | molar heat capacity at constant pressure (352.2 K) | molar heat capacity at constant pressure (356.2 K) | molar heat capacity at constant pressure (360.2 K) | molar heat capacity at constant pressure (364.2 K) | molar heat capacity at constant pressure (368.2 K) | molar heat capacity at constant pressure (372.2 K) |
| --- | --- | --- | --- | --- | --- | --- | --- | --- | --- | --- | --- | --- | --- | --- | --- | --- | --- | --- | --- | --- |
| CCCCn1cc[n+](C)c1.N#CN=C=[N-] [1-butyl-3-methylimidazolium dicyanamide] | 359.41 ± 58 J/K/mol | 361.87 ± 58 J/K/mol | 363.1 ± 58 J/K/mol | 364.34 ± 58 J/K/mol | 365.98 ± 59 J/K/mol | 367.21 ± 59 J/K/mol | 368.65 ± 59 J/K/mol | 370.08 ± 60 J/K/mol | 372.14 ± 60 J/K/mol | 374.39 ± 60 J/K/mol | 377.47 ± 61 J/K/mol | 380.35 ± 61 J/K/mol | 383.63 ± 62 J/K/mol | 386.71 ± 62 J/K/mol | 390.4 ± 63 J/K/mol | 394.51 ± 63 J/K/mol | 398.82 ± 64 J/K/mol | 403.34 ± 65 J/K/mol | 408.26 ± 65 J/K/mol | 413.6 ± 67 J/K/mol |
| CCCCn1cc[n+](C)c1.N#C[S-] [1-butyl-3-methylimidazolium thiocyanate] | 319.63 ± 51 J/K/mol | 319.63 ± 51 J/K/mol | 320.22 ± 51 J/K/mol | 321.21 ± 51 J/K/mol | 322.98 ± 52 J/K/mol | 324.36 ± 52 J/K/mol | 325.55 ± 52 J/K/mol | 326.93 ± 52 J/K/mol | 329.1 ± 53 J/K/mol | 331.27 ± 53 J/K/mol | 333.64 ± 54 J/K/mol | 336 ± 54 J/K/mol | 338.57 ± 54 J/K/mol | 341.13 ± 55 J/K/mol | 344.29 ± 55 J/K/mol | 347.05 ± 56 J/K/mol | 350.21 ± 56 J/K/mol | 353.37 ± 57 J/K/mol | 356.72 ± 57 J/K/mol | 360.27 ± 58 J/K/mol |
| CCn1cc[n+](C)c1.N#C[C-](C#N)C#N [1-ethyl-3-methyl-1H-imidazolium tricyanomethanide] | 357.18 ± 57 J/K/mol | 360.2 ± 58 J/K/mol | 362.41 ± 58 J/K/mol | 363.82 ± 58 J/K/mol | 365.83 ± 59 J/K/mol | 367.44 ± 59 J/K/mol | 368.85 ± 59 J/K/mol | 370.26 ± 60 J/K/mol | 372.07 ± 60 J/K/mol | 374.49 ± 60 J/K/mol | 376.9 ± 61 J/K/mol | 379.31 ± 61 J/K/mol | 381.73 ± 61 J/K/mol | 384.35 ± 62 J/K/mol | 387.16 ± 62 J/K/mol | 390.18 ± 63 J/K/mol | 393 ± 63 J/K/mol | 396.22 ± 64 J/K/mol | 399.24 ± 64 J/K/mol | 403.06 ± 65 J/K/mol |
| CCn1cc[n+](C)c1.N#CN=C=[N-] [1-ethyl-3-methylimidazolium dicyanamide] | 323.76 ± 52 J/K/mol | 325.88 ± 52 J/K/mol | 328.01 ± 53 J/K/mol | 329.96 ± 53 J/K/mol | 332.44 ± 53 J/K/mol | 334.21 ± 54 J/K/mol | 335.81 ± 54 J/K/mol | 337.76 ± 54 J/K/mol | 340.24 ± 55 J/K/mol | 342.89 ± 55 J/K/mol | 345.55 ± 55 J/K/mol | 348.21 ± 56 J/K/mol | 351.22 ± 56 J/K/mol | 354.41 ± 57 J/K/mol | 357.78 ± 57 J/K/mol | 361.15 ± 58 J/K/mol | 364.87 ± 59 J/K/mol | 368.59 ± 59 J/K/mol | 372.49 ± 60 J/K/mol | 376.74 ± 60 J/K/mol |
| CCn1cc[n+](C)c1.N#C[S-] [1-ethyl-3-methylimidazolium thiocyanate] | 284.51 ± 46 J/K/mol | 284.17 ± 46 J/K/mol | 285.18 ± 46 J/K/mol | 286.2 ± 46 J/K/mol | 287.89 ± 46 J/K/mol | 289.25 ± 47 J/K/mol | 290.6 ± 47 J/K/mol | 292.12 ± 47 J/K/mol | 293.98 ± 47 J/K/mol | 296.18 ± 48 J/K/mol | 298.22 ± 48 J/K/mol | 300.59 ± 48 J/K/mol | 303.12 ± 49 J/K/mol | 305.49 ± 49 J/K/mol | 308.2 ± 49 J/K/mol | 310.91 ± 50 J/K/mol | 313.96 ± 50 J/K/mol | 317.17 ± 51 J/K/mol | 320.05 ± 51 J/K/mol | 323.43 ± 52 J/K/mol |
| O=S1(=O)CCCC1 [sulfolane] | – | – | – | 182.42 ± 29 J/K/mol | 183.5 ± 29 J/K/mol | 184.7 ± 30 J/K/mol | 185.9 ± 30 J/K/mol | 187.11 ± 30 J/K/mol | 188.79 ± 30 J/K/mol | 190.47 ± 31 J/K/mol | 192.39 ± 31 J/K/mol | 194.32 ± 31 J/K/mol | 196.36 ± 31 J/K/mol | 198.52 ± 32 J/K/mol | 200.81 ± 32 J/K/mol | 203.21 ± 33 J/K/mol | 205.73 ± 33 J/K/mol | 208.26 ± 33 J/K/mol | 210.9 ± 34 J/K/mol | 213.66 ± 34 J/K/mol |
